Where “and” joins values, the source holds several entries; their conditions need not be identical. Equal values may be shown once.
What was measured:
EV71 [1] = assay: Inhibition of EV71 in Vero cells (viral RNA, qRT-PCR); type: cell-based, enterovirus 71 (EV71); details: for Percentage of viral RNA in Vero cells (%): EV71, 24 h after infection
Method: (1) Different cells were plated in a 24-well plate.
(2) When the cells grew to a confluence of 70%-80%, the DMEM medium containing 10% serum was replaced with a DMEM medium containing 2% serum (the DMEM medium containing 2% serum was added in each well at an amount of 0.5 mL), and 5 μL of EV71 virus of 1×10^6 PFU/mL was added to each well.
(3) After 1 h, different polypeptides (RQ or control TAT) with final concentrations of 0.3125 μM, 0.625 μM, 1.25 μM, 2.5 μM, and 5 μM were added respectively. The group without polypeptide added was used as a control.
(4) The samples were collected 24 h after the infection of EV71 virus, and RNA was extracted with the total RNA extraction kit.
(5) The supernatant was discarded, then 350 μL of TRK lysate was added to each well, and the plate was put on a shaker for 5 min.
(6) 350 μL of 70% ethanol (DEPC) was added to each well, and then the plate was put on a shaker for 5 min.
(7) The solution in each well was transferred to a RNA extraction column for 1 min of centrifugation at 12000 g.
(8) The solution obtained in the recovery tube was reloaded on the column again for 1 min of centrifugation at 12000 g.
(9) RNA washing buffer 1 was added in the column for 30 s of centrifugation at 12000 g.
(10) RNA washing buffer 2 was added in the column for 1 min of centrifugation at 12000 g.
(11) Step (10) was repeated.
(12) The column alone was centrifuged at 12000 g for 2 min to completely remove the residual RNA washing buffer.
(13) 50 μL of DEPC water was added to the column for 2 min of centrifugation at 12000 g.
(14) 2 μL of RNA sample was subjected to a fluorescence quantitative experiment using the one step qRT-PCR kit.
(1) Vero E6 cells were plated in a 24-well plate.
(3) After 1 h, different polypeptides (LQ or SQ) with final concentrations of 0.3125 μM, 0.625 μM, 1.25 μM, 2.5 μM, and 5 μM were added respectively. The group without polypeptide added was used as a control.

EV71 2C protein = target: T1, EV71 2C protein (Human enterovirus 71, UniProt Q66478); assay: Inhibition of helicase activity of EV71 2C protein in vitro (dsRNA unwinding); type: biochemical; details: MBP-EV71 2C; dsRNA substrate; 37° C. 50 min
T1 construct: In vitro expression and purification of EV71 2C protein; made in house; host or cells: Sf9 (Spodoptera frugiperda) cells infected with recombinant baculovirus
T1 sequence (Q66478 1112-1440 limits assumed): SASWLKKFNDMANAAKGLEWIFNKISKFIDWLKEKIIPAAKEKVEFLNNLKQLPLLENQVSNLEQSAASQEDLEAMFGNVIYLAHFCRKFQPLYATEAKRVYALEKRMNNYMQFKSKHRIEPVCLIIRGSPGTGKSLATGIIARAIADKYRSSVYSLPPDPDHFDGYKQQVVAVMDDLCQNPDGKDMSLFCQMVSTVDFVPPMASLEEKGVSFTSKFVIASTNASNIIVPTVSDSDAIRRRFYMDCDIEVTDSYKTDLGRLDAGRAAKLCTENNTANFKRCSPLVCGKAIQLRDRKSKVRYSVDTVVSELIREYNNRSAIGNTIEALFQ
Method: (1) A strand labeled with HEX at a concentration of 0.2 pmol/μL was added with a complementary strand RNA at the same concentration to prepare a HEX-labeled double-stranded dsRNA substrate by annealing.
(2) Annealing process: the reaction system was kept at 75° C. for 3 min, cooled to 25° C. at a rate of 1° C. per minute, and then kept at 25° C. for 2 min.
(3) The target protein and the double-stranded substrate were prepared according to the standard unwinding experiment reaction system. 5 μg of polypeptide RQ and control TAT were added respectively, and single and double strands controls were set. The single strand sample was boiled at 75° C. for 3 min and then placed on ice for 2 min.
(4) The prepared system was mixed well and then placed at 37° C. for 50 min of reaction.
(5) A mixture obtained after the reaction was subjected to electrophoresis.
(6) Finally, Typhoon 9500 was used for direct scan to obtain a HEX signal.
During electrophoresis, the single strand ran faster than the double strand. Therefore, if the MBP-2C protein had helicase activity, it can unwind the double-stranded dsRNA substrate to release a single-stranded RNA, and then the lane would show two bands, upper and lower. The single-stranded RNA (lane 2) prepared by boiling at 75° C. was used as a positive control. The reaction without protein added (lane 1) was used as a negative control.

EV71 [2] = assay: Inhibitory activity on EV71 in RD cells by CCK8 method; type: cell-based, enterovirus 71 (EV71); details: for Inhibition rate on EV71 virus (%): RD cells, 0.1 MOI, 24 h, CCK8
Method: (1) RD cells were plated in a 96-well plate at 100 μL per well.
(2) When the cells grew to a confluence of 70%-80%, the DMEM medium containing 10% serum was replaced with a DMEM medium containing 2% serum.
(§1) (3) The polypeptide drug was gradiently diluted with the DMEM containing 2% FBS into concentrations of 0.15625 μM, 0.3125 μM, 0.625 μM, 1.25 μM, 2.5 μM, and 5 μM, and then added to a new 96-well plate at 100 μL per well, with 3 replicate wells for each concentration.
(4) The diluted virus was added to the above wells at 100 μL per well. The wells with no drug and no virus added and the wells with no drug but virus added were set as controls respectively, with a final concentration of virus of 0.1 MOI.
(4) The mixture was transferred into the 96-well plate plated with cells for another 24 h of culture, and the inhibitory activity of the polypeptide on the virus was determined by a CCK8 kit.
(5) The inhibition rates of different concentrations of the polypeptides on virus infection were calculated according to a calculation formula of: inhibition rate of polypeptide=(well with drug-well with virus)×100%/(well with no drug-well with virus).
as §1, with “concentration. (4) The diluted virus was added to the above wells at 100 μL per well. The wells with no drug and no virus added and the wells with no drug but virus added were set as controls respectively, with a final concentration of virus of 0.1 MOI.” for “concentration.”

With `N=C(N)NCCC[C@H](NC(=O)[C@H](CCCNC(=N)N)NC(=O)[C@H](CCCNC(=N)N)NC(=O)[C@H](CCC(N)=O)NC(=O)[C@H](CCCNC(=N)N)NC(=O)[C@H](CCCNC(=N)N)NC(=O)[C@H](CCCCN)NC(=O)[C@H](CCCCN)NC(=O)[C@H](CCCNC(=N)N)NC(=O)CNC(=O)[C@@H](N)Cc1ccc(O)cc1)C(=O)O` [TAT, YGRKKRRQRRR] the “Percentage of viral RNA in Vero cells (%)” value (shortened to “Percentage … (%)”) (EV71 [1]; polypeptide 0.3125 μM) was 115.6133% and 93.75% and 91.92%, the “Percentage … (%)” value (EV71 [1]; polypeptide 0.625 μM) was 121.4818% and 94.87% and 149.0928% and the “Percentage … (%)” value (EV71 [1]; polypeptide 1.25 μM) was 111.6527% and 97.24% and 100.8214%. The “Percentage … (%)” value (EV71 [1]; polypeptide 2.5 μM) was 125.8799% and 103.6078% and 137.9907%, the “Percentage … (%)” value (EV71 [1]; polypeptide 5 μM) was 136.8661% and 104.0616% and 88.68% and the anti-EV71 effect (EV71 [1]; Vero cells) was “no anti-EV71 effect”. For the same compound, the “helicase activity of EV71 2C” value (EV71 2C protein) was “did not affect the helicase activity of 2C”, the antiviral activity (EV71 [2]; EV71 in RD cells, CCK8 method) was “no antiviral activity” and the “Inhibition rate on EV71 virus (%)” value (EV71 [2]; polypeptide 0.15625 μM) was 1.38% and 5.231% and 2.294%. For the same compound, the “Inhibition rate on EV71 virus (%)” value (EV71 [2]; polypeptide 0.3125 μM) was 2.463% and 5.242% and 6.282%, the “Inhibition rate on EV71 virus (%)” value (EV71 [2]; polypeptide 0.625 μM) was 8.374% and 2.34% and 7.234% and the “Inhibition rate on EV71 virus (%)” value (EV71 [2]; polypeptide 1.25 μM) was 8.365% and 3.237% and 6.203%. The “Inhibition rate on EV71 virus (%)” value (EV71 [2]; polypeptide 2.5 μM) was 7.373% and 4.241% and 8.213%.

Reference: patent US20250263436A1, “BROAD-SPECTRUM ANTIVIRAL DRUG FOR ENTEROVIRUS, AND APPLICATION” (WUHAN INSTITUTE OF VIROLOGY, CHINESE ACADEMY OF SCIENCES, priority 2020, published 2025)
